According to BindingDB's records for doi:10.1021/cb500956g (University of North Carolina At Chapel Hill, 2015):
pIC50: −log10 of the molar value.

Key:
Assay in all cases: AlphaScreen Assay
Settings in all cases: pH 8
[1] = biological target: T1, Chromobox protein homolog 7 (Homo sapiens, UniProt O95931)
T1 sequence (O95931 whole entry): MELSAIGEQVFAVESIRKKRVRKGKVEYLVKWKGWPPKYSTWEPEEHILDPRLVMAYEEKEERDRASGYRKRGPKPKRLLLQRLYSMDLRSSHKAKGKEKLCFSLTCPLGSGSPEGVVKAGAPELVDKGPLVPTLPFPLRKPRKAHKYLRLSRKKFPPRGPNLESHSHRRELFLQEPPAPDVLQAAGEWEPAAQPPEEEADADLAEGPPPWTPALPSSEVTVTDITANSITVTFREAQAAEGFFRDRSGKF
Experimental: (§1) In brief, compound plates (1 μL at 10 mM highest concentration; 3-fold, 10-point dilutions in DMSO) were diluted in 1X assay buffer (20 mM TRIS pH 8.0, 25 mM NaCl, 2 mM DTT and 0.05% Tween-20) to 1 mM using a Multimek robotic pipettor (Nanoscreen), and 1 μL was spotted into the wells of 384-well low-volume Proxiplates (PerkinElmer). To these plates was added 9 μL of protein−peptide mix in a 1X assay buffer by Multidrop (Thermo) to bring the final compound concentration to 100 μM, and this was incubated for 30 min at RT. Next, 2 μL of a 1:1 mixture of streptavidin-conjugate donor and nickel-chelate acceptor beads (45μg/mL in 1X assay buffer) were added, and the plates were allowed to incubate for an additional 30 min in the dark at RT. After incubation, the plates were read on an EnVision multilabel reader equipped with an HTS AlphaScreen laser (PerkinElmer).

[2] = biological target: MBT domain-containing protein 1 (Homo sapiens, UniProt Q05BQ5)
Chain of MBT domain-containing protein 1 (Q05BQ5 whole entry, the tested form may be a part): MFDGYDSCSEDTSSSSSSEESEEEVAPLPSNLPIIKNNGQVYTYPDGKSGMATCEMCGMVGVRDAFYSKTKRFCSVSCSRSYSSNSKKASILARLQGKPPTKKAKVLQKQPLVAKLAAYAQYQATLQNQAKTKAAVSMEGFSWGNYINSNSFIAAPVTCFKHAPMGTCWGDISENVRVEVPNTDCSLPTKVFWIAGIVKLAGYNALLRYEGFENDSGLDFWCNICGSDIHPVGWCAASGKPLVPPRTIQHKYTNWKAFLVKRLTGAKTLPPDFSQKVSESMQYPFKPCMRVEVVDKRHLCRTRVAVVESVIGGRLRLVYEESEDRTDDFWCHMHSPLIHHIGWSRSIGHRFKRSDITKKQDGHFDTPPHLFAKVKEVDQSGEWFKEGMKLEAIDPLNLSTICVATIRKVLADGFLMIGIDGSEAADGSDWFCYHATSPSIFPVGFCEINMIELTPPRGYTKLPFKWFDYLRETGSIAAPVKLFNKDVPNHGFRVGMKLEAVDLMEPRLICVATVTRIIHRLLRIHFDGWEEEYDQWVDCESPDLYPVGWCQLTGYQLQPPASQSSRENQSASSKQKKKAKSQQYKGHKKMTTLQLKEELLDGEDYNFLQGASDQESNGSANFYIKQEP
Experimental: as §1

[3] = biological target: T2, E3 ubiquitin-protein ligase UHRF1 (Homo sapiens, UniProt Q96T88)
T2 sequence (Q96T88 whole entry): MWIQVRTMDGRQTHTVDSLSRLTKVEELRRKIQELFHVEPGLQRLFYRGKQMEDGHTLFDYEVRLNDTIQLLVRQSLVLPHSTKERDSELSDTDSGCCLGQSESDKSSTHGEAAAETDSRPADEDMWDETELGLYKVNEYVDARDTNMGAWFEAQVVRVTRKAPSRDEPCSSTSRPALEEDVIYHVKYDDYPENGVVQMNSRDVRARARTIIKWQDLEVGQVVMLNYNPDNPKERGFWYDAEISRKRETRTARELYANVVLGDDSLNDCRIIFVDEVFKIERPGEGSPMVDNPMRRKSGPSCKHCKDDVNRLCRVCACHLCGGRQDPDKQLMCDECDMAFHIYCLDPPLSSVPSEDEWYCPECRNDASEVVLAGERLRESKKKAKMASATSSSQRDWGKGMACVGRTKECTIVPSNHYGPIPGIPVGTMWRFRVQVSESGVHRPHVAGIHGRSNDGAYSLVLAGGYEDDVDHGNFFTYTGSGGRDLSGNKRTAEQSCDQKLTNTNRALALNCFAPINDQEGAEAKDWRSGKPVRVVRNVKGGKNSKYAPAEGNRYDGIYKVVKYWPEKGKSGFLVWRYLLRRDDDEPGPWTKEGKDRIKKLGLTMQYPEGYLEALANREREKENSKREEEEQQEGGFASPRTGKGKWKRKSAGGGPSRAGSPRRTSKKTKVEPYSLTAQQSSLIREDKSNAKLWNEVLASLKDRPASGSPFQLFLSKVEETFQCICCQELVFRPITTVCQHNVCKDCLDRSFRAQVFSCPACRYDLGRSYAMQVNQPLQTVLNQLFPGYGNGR
Experimental: as §1

[4] = biological target: T3, Isoform 4 of Lethal(3)malignant brain tumor-like protein 1 (4) (Homo sapiens, UniProt Q9Y468)
T3 sequence (Q9Y468 whole entry): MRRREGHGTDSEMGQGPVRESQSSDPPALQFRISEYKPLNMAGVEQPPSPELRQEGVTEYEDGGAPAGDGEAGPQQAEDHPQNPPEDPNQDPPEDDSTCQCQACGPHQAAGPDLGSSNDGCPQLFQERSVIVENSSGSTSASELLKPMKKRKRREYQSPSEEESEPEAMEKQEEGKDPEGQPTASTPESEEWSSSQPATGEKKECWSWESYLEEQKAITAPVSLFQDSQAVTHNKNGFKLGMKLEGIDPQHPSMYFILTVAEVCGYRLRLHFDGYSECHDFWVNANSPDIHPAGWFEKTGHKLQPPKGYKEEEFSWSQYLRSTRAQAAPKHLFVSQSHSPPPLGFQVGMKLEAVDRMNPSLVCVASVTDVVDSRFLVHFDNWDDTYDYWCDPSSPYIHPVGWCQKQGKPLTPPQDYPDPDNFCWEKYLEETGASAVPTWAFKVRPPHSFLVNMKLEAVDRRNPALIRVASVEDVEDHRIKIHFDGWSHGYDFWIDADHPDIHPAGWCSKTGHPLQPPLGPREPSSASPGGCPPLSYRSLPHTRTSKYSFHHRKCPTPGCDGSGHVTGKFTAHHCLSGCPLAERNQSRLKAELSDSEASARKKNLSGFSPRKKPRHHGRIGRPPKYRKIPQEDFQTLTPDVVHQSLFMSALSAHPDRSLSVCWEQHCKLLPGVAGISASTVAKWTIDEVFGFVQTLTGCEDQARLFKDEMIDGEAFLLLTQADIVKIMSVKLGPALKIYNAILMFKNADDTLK
Experimental: as §1

[5] = biological target: T4, Lethal(3)malignant brain tumor-like protein 3 (Homo sapiens, UniProt Q96JM7)
T4 sequence (Q96JM7 whole entry): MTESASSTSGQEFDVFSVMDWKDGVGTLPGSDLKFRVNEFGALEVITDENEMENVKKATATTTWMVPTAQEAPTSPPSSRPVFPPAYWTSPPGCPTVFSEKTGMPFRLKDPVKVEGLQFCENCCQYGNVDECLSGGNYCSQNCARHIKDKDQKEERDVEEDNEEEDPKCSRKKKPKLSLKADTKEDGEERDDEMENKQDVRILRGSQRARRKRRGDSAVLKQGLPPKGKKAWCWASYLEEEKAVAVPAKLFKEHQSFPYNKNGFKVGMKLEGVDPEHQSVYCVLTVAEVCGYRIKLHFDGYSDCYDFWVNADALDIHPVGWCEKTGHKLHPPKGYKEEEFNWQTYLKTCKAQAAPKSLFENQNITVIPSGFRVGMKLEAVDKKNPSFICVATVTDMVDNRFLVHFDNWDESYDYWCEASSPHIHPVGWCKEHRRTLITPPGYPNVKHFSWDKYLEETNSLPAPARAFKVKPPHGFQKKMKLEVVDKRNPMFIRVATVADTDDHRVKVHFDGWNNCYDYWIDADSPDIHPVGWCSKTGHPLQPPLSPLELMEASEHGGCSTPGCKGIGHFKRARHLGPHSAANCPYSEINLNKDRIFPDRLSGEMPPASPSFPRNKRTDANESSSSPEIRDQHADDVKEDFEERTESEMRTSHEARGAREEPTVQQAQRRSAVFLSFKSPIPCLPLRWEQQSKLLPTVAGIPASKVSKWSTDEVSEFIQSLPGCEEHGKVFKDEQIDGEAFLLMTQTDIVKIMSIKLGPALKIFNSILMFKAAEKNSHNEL
Experimental: as §1

Measured: pIC50

CC(C)(C)NCCCNC(=O)c1ccccc1Br [2-Bromo-N-(3-(tert-butylamino)propyl)benzamide (16)]
< 4.00: all assays above

CC(C)(C)NCCCCNC(=O)c1cccc(Br)c1 [3-Bromo-N-(4-(tert-butylamino)butyl)benzamide (11)]
< 4.00: all assays above

CC(C)(C)NCCCCCNC(=O)c1cccc(Br)c1 [3-Bromo-N-(5-(tert-butylamino)pentyl)benzamide (12)]
< 4.00: all assays above

CC(C)(C)NCCCNC(=O)c1ccc(Br)cc1 [4-Bromo-N-(3-(tert-butylamino)propyl)benzamide (15)]
< 4.00: all assays above

CC(C)(C)NCCCNC(=O)c1cc(Br)ccn1 [4-Bromo-N-(3-(tert-butylamino)propyl)picolinamide (24)]
< 4.00: all assays above

CC(C)(C)N1CCN(C(=O)c2cccc(Br)c2)CC1 [(3-Bromophenyl)(4-(tert-butyl)piperazin-1-yl)methanone (10)]
< 4.00: all assays above

CC(C)(C)NCCCNC(=O)c1cc(C(F)(F)F)ccn1 [N-(3-(Tert-butylamino)propyl)-4-(trifluoromethyl)picolinamide (25)]
< 4.00: all assays above
